In ChEMBL document CHEMBL2321831, “Design, synthesis, and biological evaluations of novel 7-[7-amino-7-methyl-5-azaspiro[2.4]heptan-5-yl]-8-methoxyquinolines with potent antibacterial activity against respiratory pathogens” (J Med Chem, 2013):
Converted amounts (≈) assume the structure as drawn.

Legend:
hERG (KCNH2) [1] = target: T1, hERG (KCNH2) (Homo sapiens, UniProt Q12809); assay: Inhibition of human ERG expressed in CHOK1 cells at 30 uM; format: cell-based; conditions: CHO-K1 cells expressing hERG
Klebsiella pneumoniae = assay: Antibacterial activity against Klebsiella pneumoniae TYPE1 after 18 hrs by microbroth dilution method; format: functional; conditions: TYPE1, 18 h
[2] = Drug uptake in cynomolgus monkey serum at 10 mg/kg, iv after 5 mins; format: ADME, organism-based, Macaca fascicularis; set-up: dose 10 mg/kg, route intravenous; conditions: read-out: Drug uptake
Pseudomonas aeruginosa = assay: Antibacterial activity against Pseudomonas aeruginosa PAO1 after 18 hrs by microbroth dilution method; format: functional; conditions: PAO1, 18 h
Haemophilus influenzae = assay: Antibacterial activity against Haemophilus influenzae ATCC 49247 after 18 hrs by microbroth dilution method; format: functional; conditions: ATCC 49247, 18 h
[3] = system: Mycoplasmoides pneumoniae; assay: Antibacterial activity against Mycoplasma pneumoniae ATCC 29085 after 18 hrs by microbroth dilution method; format: functional; conditions: ATCC 29085, 18 h
[4] = system: Mycoplasmoides pneumoniae; assay: Antibacterial activity against Mycoplasma pneumoniae 18-1 after 18 hrs by microbroth dilution method; format: functional; conditions: 18-1, 18 h
Streptococcus pneumoniae [5] = assay: Antibacterial activity against levofloxacin-intermediate and levofloxacin-resistant Streptococcus pneumoniae after 18 hrs by microbroth dilution method; format: functional
Streptococcus pyogenes = assay: Antibacterial activity against Streptococcus pyogenes G-36 after 18 hrs by microbroth dilution method; format: functional; conditions: G-36, 18 h
Moraxella catarrhalis = assay: Antibacterial activity against Moraxella catarrhalis ATCC 25238 after 18 hrs by microbroth dilution method; format: functional; conditions: ATCC 25238, 18 h
[6] = AUC (0 to 24 hrs) in cynomolgus monkey serum at 5 mg/kg, po; format: ADME, organism-based, Macaca fascicularis, Plasma; set-up: time < 24 hr, dose 5 mg/kg, route oral
Enterococcus faecalis = assay: Antibacterial activity against Enterococcus faecalis ATCC 19433 after 18 hrs by microbroth dilution method; format: functional; conditions: ATCC 19433, 18 h
[7] = AUC (0 to 8 hrs) in Crj:CD rat liver at 5 mg/kg, po; format: ADME, organism-based; set-up: time < 8 hr, dose 5 mg/kg, route oral
[8] = system: Staphylococcus epidermidis; assay: Antibacterial activity against Staphylococcus epidermidis 56500 after 18 hrs by microbroth dilution method; format: functional; conditions: Staphylococcus epidermidis, 56500, 18 h
[9] = Cmax in Crj:CD rat serum at 5 mg/kg, po; format: ADME, organism-based; set-up: dose 5 mg/kg, route oral
[10] = Drug recovery in Crj:CD rat urine at 5 mg/kg, po after 24 hrs; format: ADME, organism-based; set-up: dose 5 mg/kg, route oral; conditions: read-out: Drug recovery
Streptococcus pneumoniae [11] = assay: Antibacterial activity against penicillin-susceptible Streptococcus pneumoniae J24 after 18 hrs by microbroth dilution method; format: functional; conditions: J24, 18 h
[12] = AUC (0 to 8 hrs) in cynomolgus monkey serum at 10 mg/kg, iv; format: ADME, organism-based, Macaca fascicularis, Plasma; set-up: time < 8 hr, dose 10 mg/kg, route intravenous
Bacillus subtilis = assay: Antibacterial activity against Bacillus subtilis IID 685 after 18 hrs by microbroth dilution method; format: functional; conditions: IID 685, 18 h
[13] = Primary phase half life in cynomolgus monkey serum at 10 mg/kg, iv; format: ADME, organism-based, Macaca fascicularis; set-up: dose 10 mg/kg, route intravenous; conditions: read-out: alphat1/2 (converted)
[14] = AUC (0 to 8 hrs) in Crj:CD rat serum at 5 mg/kg, po; format: ADME, organism-based; set-up: time < 8 hr, dose 5 mg/kg, route oral
Staphylococcus aureus [15] = assay: Antibacterial activity against Staphylococcus aureus FDA 209-P after 18 hrs by microbroth dilution method; format: functional
[16] = Drug recovery in cynomolgus monkey urine at 10 mg/kg, iv after 24 hrs; format: ADME, organism-based, Macaca fascicularis; set-up: dose 10 mg/kg, route intravenous; conditions: read-out: Drug recovery
[17] = Cmax in cynomolgus monkey serum at 5 mg/kg, po; format: ADME, organism-based, Macaca fascicularis; set-up: dose 5 mg/kg, route oral
[18] = Half life in cynomolgus monkey serum at 5 mg/kg, po; format: ADME, organism-based, Macaca fascicularis; set-up: dose 5 mg/kg, route oral
[19] = AUC (0 to 8 hrs) in Crj:CD rat lung at 5 mg/kg, po; format: ADME, organism-based; set-up: time < 8 hr, dose 5 mg/kg, route oral
hERG (KCNH2) [20] = target: T1, hERG (KCNH2); assay: Inhibition of human ERG expressed in CHOK1 cells at 100 uM; format: cell-based; conditions: CHO-K1 cells expressing hERG
Staphylococcus aureus [21] = assay: Antibacterial activity against levofloxacin-resistant and methicillin-resistant Staphylococcus aureus 870307 after 18 hrs by microbroth dilution method; format: functional; conditions: Staphylococcus aureus, 870307, 18 h
[22] = Drug recovery in cynomolgus monkey urine at 5 mg/kg, po after 24 hrs; format: ADME, organism-based, Macaca fascicularis; set-up: dose 5 mg/kg, route oral; conditions: read-out: Drug recovery
Chlamydia pneumoniae [23] = assay: Antibacterial activity against Chlamydophila pneumoniae AR39 after 18 hrs by microbroth dilution method; format: functional; conditions: AR39, 18 h
Chlamydia pneumoniae [24] = assay: Antibacterial activity against Chlamydophila pneumoniae CM-1 after 18 hrs by microbroth dilution method; format: functional; conditions: CM-1, 18 h
[25] = AUC (0 to 8 hrs) in Crj:CD rat kidney at 5 mg/kg, po; format: ADME, organism-based; set-up: time < 8 hr, dose 5 mg/kg, route oral
Streptococcus pneumoniae [26] = assay: Antibacterial activity against quinolone, penicillin-resistant Streptococcus pneumoniae 104835 after 18 hrs by microbroth dilution method; format: functional; conditions: Streptococcus pneumoniae, 104835, 18 h
[27] = Plasma protein binding in human at 10 ug/mL by ultrafiltration method; format: ADME, cell-free; conditions: read-out: PPB (converted)

T1 sequence (Q12809 whole entry): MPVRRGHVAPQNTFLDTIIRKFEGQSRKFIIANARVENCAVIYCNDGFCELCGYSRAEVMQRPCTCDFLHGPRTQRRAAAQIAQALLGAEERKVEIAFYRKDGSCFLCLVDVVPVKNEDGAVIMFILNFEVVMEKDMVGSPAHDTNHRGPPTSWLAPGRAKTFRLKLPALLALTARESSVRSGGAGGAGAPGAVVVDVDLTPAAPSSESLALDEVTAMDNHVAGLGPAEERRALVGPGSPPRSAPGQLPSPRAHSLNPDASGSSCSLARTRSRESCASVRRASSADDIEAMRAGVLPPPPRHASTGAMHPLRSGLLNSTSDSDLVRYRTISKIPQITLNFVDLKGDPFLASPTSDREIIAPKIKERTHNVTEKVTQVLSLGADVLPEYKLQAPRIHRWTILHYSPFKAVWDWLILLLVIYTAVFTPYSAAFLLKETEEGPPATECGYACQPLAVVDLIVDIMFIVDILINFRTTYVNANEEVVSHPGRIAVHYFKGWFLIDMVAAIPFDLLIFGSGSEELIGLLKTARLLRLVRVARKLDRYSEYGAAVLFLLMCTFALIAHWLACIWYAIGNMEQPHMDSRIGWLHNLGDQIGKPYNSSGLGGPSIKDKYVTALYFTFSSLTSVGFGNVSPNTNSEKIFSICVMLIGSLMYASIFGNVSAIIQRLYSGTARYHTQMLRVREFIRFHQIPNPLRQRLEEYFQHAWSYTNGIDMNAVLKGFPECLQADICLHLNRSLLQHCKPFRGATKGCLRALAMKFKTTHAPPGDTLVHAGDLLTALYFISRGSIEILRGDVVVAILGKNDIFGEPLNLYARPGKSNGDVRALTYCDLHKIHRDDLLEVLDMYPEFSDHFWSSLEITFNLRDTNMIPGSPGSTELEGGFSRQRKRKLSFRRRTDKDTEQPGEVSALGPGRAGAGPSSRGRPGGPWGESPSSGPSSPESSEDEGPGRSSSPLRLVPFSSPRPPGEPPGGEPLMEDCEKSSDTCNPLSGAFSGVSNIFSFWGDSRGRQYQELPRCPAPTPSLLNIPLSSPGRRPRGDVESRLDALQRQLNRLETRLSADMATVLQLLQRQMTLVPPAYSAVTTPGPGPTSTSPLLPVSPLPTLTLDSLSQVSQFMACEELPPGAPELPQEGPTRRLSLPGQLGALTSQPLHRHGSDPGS

For `C[C@H]1COc2c(N3CCN(C)CC3)c(F)cc3c(=O)c(C(=O)O)cn1c23.C[C@H]1COc2c(N3CCN(C)CC3)c(F)cc3c(=O)c(C(=O)O)cn1c23.O` [LEVOFLOXACIN], the inhibition at 30 µM (hERG (KCNH2) [1]) was -0.9%, the MIC (Klebsiella pneumoniae) was 0.05 µg/mL and the concentration at 5 min [2] was 4170 ng/mL. It also gave an MIC (Pseudomonas aeruginosa) of 0.39 µg/mL, an MIC (Haemophilus influenzae) of 0.012 µg/mL and an MIC [3] of 1 µg/mL. It also gave an MIC [4] of 2 µg/mL, an MIC50 (Streptococcus pneumoniae [5]) of 8 µg/mL and an MIC80 (Streptococcus pneumoniae [5]) of 16 µg/mL. It also gave an MIC90 (Streptococcus pneumoniae [5]) of 16 µg/mL, an MIC (Streptococcus pyogenes) of 0.78 µg/mL and an MIC (Moraxella catarrhalis) of 0.025 µg/mL. It also gave an AUC(0-t) at 24 h [6] of 15200 ng·h/mL, an MIC (Enterococcus faecalis) of 0.78 µg/mL and an AUC(0-t) at 8 h [7] of 16400 ng·h/mL. For the same compound, the MIC [8] was 0.39 µg/mL, the Cmax [9] was 1470 ng/mL and the dose excreted at 24 h [10] was 80%. For the same compound, the MIC (Streptococcus pneumoniae [11]) was 0.78 µg/mL, the AUC(0-t) at 8 h [12] was 15500 ng·h/mL and the MIC (Bacillus subtilis) was 1.56 µg/mL. The half-life [13] was 3.2 h, the AUC(0-t) at 8 h [14] was 3410 ng·h/mL and the MIC (Staphylococcus aureus [15]) was 0.1 µg/mL. For the same compound, the dose excreted at 24 h [16] was 80.7%, the Cmax [17] was 1920 ng/mL and the half-life [18] was 3.5 h. It also gave an AUC(0-t) at 8 h [19] of 5570 ng·h/mL, an inhibition at 100 µM (hERG (KCNH2) [20]) of 4.2% and an MIC (Staphylococcus aureus [21]) greater than 6.25 µg/mL. For the same compound, the dose excreted at 24 h [22] was 73.9%, the MIC (Chlamydia pneumoniae [23]) was 0.5 µg/mL and the MIC (Chlamydia pneumoniae [24]) was 0.5 µg/mL. It also gave an AUC(0-t) at 8 h [25] of 19300 ng·h/mL, an MIC (Streptococcus pneumoniae [26]) greater than 6.25 µg/mL and a fraction unbound at 10 ug/mL [27] of 0.678.
`C[C@H]1NCc2cc(-c3ccc4c(=O)c(C(=O)O)cn(C5CC5)c4c3OC(F)F)ccc21` [GARENOXACIN] showed an MIC [3] of 0.06 µg/mL (≈ 0.141 µM), an MIC [4] of 0.12 µg/mL (≈ 0.281 µM) and an MIC50 (Streptococcus pneumoniae [5]) of 0.25 µg/mL (≈ 0.586 µM). For the same compound, the MIC80 (Streptococcus pneumoniae [5]) was 0.5 µg/mL (≈ 1.17 µM), the MIC90 (Streptococcus pneumoniae [5]) was 1 µg/mL (≈ 2.35 µM) and the MIC (Chlamydia pneumoniae [23]) was 0.063 µg/mL (≈ 0.148 µM). The MIC (Chlamydia pneumoniae [24]) was 0.016 µg/mL (≈ 0.0375 µM).
`CO/N=C1\CN(c2nc3c(cc2F)c(=O)c(C(=O)O)cn3C2CC2)CC1CN` (centres undefined) [GEMIFLOXACIN] gave an MIC [3] of 0.25 µg/mL (≈ 0.642 µM), an MIC [4] of 0.25 µg/mL (≈ 0.642 µM) and an MIC (Chlamydia pneumoniae [23]) of 0.125 µg/mL (≈ 0.321 µM). It also gave an MIC (Chlamydia pneumoniae [24]) of 0.063 µg/mL (≈ 0.162 µM).
Compound `COc1c(N2CC(C)(N)C3(CC3)C2)c(F)cc2c(=O)c(C(=O)O)cn([C@@H]3C[C@@H]3F)c12` (some centres undefined) has an MIC (Klebsiella pneumoniae) of 0.1 µg/mL (≈ 0.238 µM), an MIC (Pseudomonas aeruginosa) of 0.78 µg/mL (≈ 1.86 µM) and an MIC (Haemophilus influenzae) of 0.006 µg/mL (≈ 0.0143 µM). It also gave an MIC (Streptococcus pyogenes) of 0.78 µg/mL (≈ 1.86 µM), an MIC (Moraxella catarrhalis) of 0.05 µg/mL (≈ 0.119 µM) and an MIC (Enterococcus faecalis) of 0.78 µg/mL (≈ 1.86 µM). The MIC [8] was 0.2 µg/mL (≈ 0.477 µM), the MIC (Streptococcus pneumoniae [11]) was 0.39 µg/mL (≈ 0.93 µM) and the MIC (Bacillus subtilis) was 0.39 µg/mL (≈ 0.93 µM). For the same compound, the MIC (Staphylococcus aureus [15]) was 0.05 µg/mL (≈ 0.119 µM) and the MIC (Staphylococcus aureus [21]) was 1.56 µg/mL (≈ 3.72 µM).
Compound `CC[C@H]1OC(=O)[C@H](C)[C@@H](O[C@H]2C[C@@](C)(OC)[C@@H](O)[C@H](C)O2)[C@H](C)[C@@H](O[C@@H]2O[C@H](C)C[C@H](N(C)C)[C@H]2O)[C@](C)(OC)C[C@@H](C)C(=O)[C@H](C)[C@@H](O)[C@]1(C)O` [CLARITHROMYCIN] has an MIC50 (Streptococcus pneumoniae [5]) greater than 32 µg/mL, an MIC80 (Streptococcus pneumoniae [5]) greater than 32 µg/mL and an MIC90 (Streptococcus pneumoniae [5]) greater than 32 µg/mL.
`CC1(C)S[C@@H]2[C@H](NC(=O)Cc3ccccc3)C(=O)N2[C@H]1C(=O)O` [PENICILLIN G] gave an MIC50 (Streptococcus pneumoniae [5]) of 0.06 µg/mL (≈ 0.179 µM), an MIC80 (Streptococcus pneumoniae [5]) of 2 µg/mL (≈ 5.98 µM) and an MIC90 (Streptococcus pneumoniae [5]) of 2 µg/mL (≈ 5.98 µM).
